Data from patent US7988957B2, “Gene introduction efficiency enhancer” (Genesis Healthcare Corp., priority 2003, dated 2011).

Key:
[1] = tested on: human glioma cell line U251MG; test: AAV-vector-mediated EGFP transgene expression, fluorescence microscope; format: cell-based; conditions: 24 hours
Description: (§1) FK228 which had been isolated and purified through the method described in Japanese Patent Publication (kokoku) No. 7-64872 was employed as a histone deacetylase inhibitor. The FK228 was dissolved in ethanol for storage. When in use, the FK228 was diluted with a medium, to thereby regulate the FK228 concentration to fall within a range of 0 to 100 ng/mL.
An AAV vector genome plasmid and a helper plasmid were introduced into 293 cells through the calcium phosphate method, and AAV vectors (types 1 to 5) which express EGFP (enhanced green fluorescent protein) under the control of a cytomegalovirus (CMV) promoter were prepared. Specifically, the AAV vector preparation was performed through the method described in the following references. • Reference 1: Methods 2002; 8: 237-247 (described above) • Reference 2: Methods Enzymol 2002; 346: 378-393 (described above) • 3. Cells and Cell Culture (1) Human Glioma Cell Line; U251MG, U87MG
U251MG was obtained from JCRB Cell Bank, National Institute of Health Sciences. […]
(§2) The effect of FK228 on enhancing expression of a transgene was evaluated with glioma cells. Type-2 AAV vector (1×10^4 genome copies/cell) and FK228 (0, 0.01, 0.1, 1, 10, or 100 ng/mL) were added to a culture supernatant of the human glioma cell line U251MG, and 24 hours later, expression of EGFP was observed under a fluorescence microscope.

[2] = tested on: head and neck cancer cell line HEp-2; test: AAV-vector-mediated EGFP transgene expression; format: cell-based, human; conditions: FK228 1 ng/mL
Description: as §1
(§3) An AAV vector genome plasmid and a helper plasmid were introduced into 293 cells through the calcium phosphate method, and AAV vectors (types 1 to 5) which express EGFP (enhanced green fluorescent protein) under the control of a cytomegalovirus (CMV) promoter were prepared. […]
as §2
(§4) Similar to the case of U251MG, in the cases of the head and neck cancer cell line HEp-2 and the subcultured human glioma cells (prepared from an operative specimen), the effect of FK228 in enhancing AAV-vector-mediated gene transfer was evaluated.

[3] = tested on: subcultured human glioma cells (prepared from an operative specimen); test: AAV-vector-mediated EGFP transgene expression; format: cell-based; conditions: FK228 1 ng/mL
Description: as §1, §3, §2, §4

U251MG [4] = test: Percent occurrence of EGFP-positive cells by FACS analysis; format: cell-based, human; conditions: FK228 1 ng/mL, type-2 AAV vector, 24 hours, FIG. 1B
Description: (§5) Type-2 AAV vector (1×10^4 genome copies/cell) and FK228 (0, 0.01, 0.1, or 1 ng/mL) were added to a culture supernatant of U251MG, and 24 hours later, the percent occurrence of cells positive for CD51 (integrin) or EGFP was calculated through FACS analysis. The FACS analysis was performed through a customary method by use of FACSCan (Becton Dickinson, San Jose, Calif.) and CellQuest software (Becton Dickinson, San Jose, Calif.).
(§6) PE-labeled anti-CD51 monoclonal antibody: 13C2 was obtained from Cymbus Biotechnology Ltd., Chandlers Ford, UK. Dead cells were detected by means of 7-amino-actinomycin D (Via-Probe; Pharmingen, San Diego, Calif.).
(§7) Cells were washed with a FACS buffer (PBS containing 5% FBS and 0.05% sodium azide), and then incubated with the antibody on ice for 30 minutes. Fluorescences attributed to EGFP, PE, and Via-Probe were detected by FL1, FL2, and FL3, respectively. Cells negative for Via-Probe; i.e., viable cells, were employed for measuring expression of EGFP and/or CD51.

CD51 (integrin) = test: Percent occurrence of CD51 (integrin)-positive cells by FACS analysis; format: cell-based, human; conditions: FK228 0, 0.01, 0.1 or 1 ng/mL; 24 hours; U251MG; FIG. 1A
Description: as §5, §6, §7

U251MG [5] = test: Number of viral genome copies taken into cells, real-time PCR; format: cell-based, human; conditions: FK228 1 ng/mL
Description: Type-2 AAV vector (1×10^4 genome copies/cell) and FK228 (1 ng/mL) were added to a culture supernatant of U251MG, and the number of viral genome copies taken into cells was semi-quantified by means of real-time PCR (ABI, Prism 7700; QIAGEN, SYBR Green PCR kit QuantiTect) (performed through the method according to Mol. Ther. Aug. 6, 2002 (2): 272-278). After U251MG cells were infected with the type-2 AAV vector, the number of intracellular genome copies was measured in a time-course manner (0, 2, 4, 12, and 24 hours).

C/C=C1\NC(=O)[C@H]2CSSCC/C=C/[C@H](CC(=O)N[C@H](C(C)C)C(=O)N2)OC(=O)[C@H](C(C)C)NC1=O [FK228]
EGFP expression enhancing effect ([1]; FK228 at 1 ng/mL or more, type-2 AAV vector): remarkable EGFP expression enhancing effect | expression of EGFP ([1]; Type-2 AAV vector 1×10^4 genome copies/cell, FK228 0, 0.01, 0.1, 1, 10 or 100 ng/mL): enhanced in an FK228-dose-dependent manner | EGFP expression [2]: enhanced | EGFP expression [3]: enhanced | percent occurrence of EGFP-positive cells (U251MG [4]): sharply increased | percent occurrence of integrin-positive cells (CD51 (integrin)): gradual increase | genome copy number in the FK228-treated group (U251MG [5]; 24 hours after the infection): slight increase | genome copy number, FK228-treated group versus control group (only a solvent) (U251MG [5]; type-2 AAV vector, 0, 2, 4, 12 and 24 hours, FIG. 2): No significant difference
